Results reported in US8030498B2, “Benzoylpyrazole compounds and herbicides containing them” (Ishihara Sangyo Kaisha, Ltd., priority 2005, dated 2011).

Tests used:
[1] = test system: soybean (Glycine max Merr.); assay: Test Example 1: foliar treatment, growth inhibition rate, soybean; type: in vivo; conditions: 31 g/ha active ingredient, visually observed 17th to 23rd day after application
Procedure, shortened: (§1)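 Visual scoring of growth inhibition, 0% (untreated) to 100% (complete kill), on days 17–23 following post-emergence spray of formulated compound in water (500 L/ha, 0.1 vol % spreader); plants treated at set leaf stages, e.g. corn 2.0–3.5, wheat 1.7–3.4.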

wheat (Triticum spp.) = assay: Test Example 1: foliar treatment, growth inhibition rate, wheat; type: in vivo; conditions: 31 g/ha active ingredient, visually observed 17th to 23rd day after application
Procedure, shortened: (§2)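 Plants grown in upland soil in pots were sprayed on the foliage at set leaf stages (corn 2.0–3.5, greenfoxtail 1.0–3.0, rice 1.0–2.5, wheat 1.7–3.4 leaves) with wettable powder or emulsifiable concentrate formulations diluted in water at 500 L/ha plus 0.1 vol % spreader. Growth inhibition was scored visually 17–23 days later.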

crabgrass = assay: Test Example 2: soil application on the day after sowing, growth inhibition rate, crabgrass; type: in vivo, Digitaria sanguinalis L.; conditions: 250 g/ha active ingredient, observed on 19th to 24th day
Procedure, shortened: (§3)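 Seeds were sown in upland field soil in pots, and on the following day compounds formulated as wettable powders or emulsifiable concentrates were diluted in water (500 liter per hectare) and sprayed onto the soil at prescribed active-ingredient doses. Growth was scored visually 19–24 days later, 0 = untreated to 100% = complete kill.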

corn (Zea mays L.) = assay: Test Example 1: foliar treatment, growth inhibition rate, corn; type: in vivo; conditions: 31 g/ha active ingredient, visually observed 17th to 23rd day after application
Procedure, shortened: as §2

[2] = test system: barnyardgrass (Echinochloa crus-galli L.); assay: Test Example 1: foliar treatment, growth inhibition rate, barnyardgrass; type: in vivo; conditions: 31 g/ha active ingredient, visually observed 17th to 23rd day after application
Procedure, shortened: (§4)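 Potted upland soil; compounds as wettable powders or emulsifiable concentrates diluted in water at 500 L/ha plus 0.1 vol % spreader, foliar-sprayed at defined leaf stages (rice 1.0–2.5, wheat 1.7–3.4, corn 2.0–3.5, greenfoxtail 1.0–3.0). Growth inhibition (0–100%) scored visually 17–23 days after application.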

prickly sida = assay: Test Example 2: soil application on the day after sowing, growth inhibition rate, prickly sida; type: in vivo, Sida spinosa L.; conditions: 250 g/ha active ingredient, observed on 19th to 24th day
Procedure, shortened: as §3

soybean = assay: Test Example 2: soil application on the day after sowing, growth inhibition rate, soybean; type: in vivo, Glycine max Merr.; conditions: 250 g/ha active ingredient, observed on 19th to 24th day
Procedure, shortened: as §3

wheat = assay: Test Example 2: soil application on the day after sowing, growth inhibition rate, wheat; type: in vivo, Triticum spp.; conditions: 250 g/ha active ingredient, observed on 19th to 24th day
Procedure, shortened: as §3

corn = assay: Test Example 2: soil application on the day after sowing, growth inhibition rate, corn; type: in vivo, Zea mays L.; conditions: 250 g/ha active ingredient, observed on 19th to 24th day
Procedure, shortened: as §3

[3] = test system: prickly sida (Sida spinosa L.); assay: Test Example 1: foliar treatment, growth inhibition rate, prickly sida; type: in vivo; conditions: 31 g/ha active ingredient, visually observed 17th to 23rd day after application
Procedure, shortened: as §1

rice = assay: Test Example 2: soil application on the day after sowing, growth inhibition rate, rice; type: in vivo, Oryza sativa L.; conditions: 250 g/ha active ingredient, observed on 19th to 24th day
Procedure, shortened: as §3

barnyardgrass = assay: Test Example 2: soil application on the day after sowing, growth inhibition rate, barnyardgrass; type: in vivo, Echinochloa crus-galli L.; conditions: 250 g/ha active ingredient, observed on 19th to 24th day
Procedure, shortened: as §3

velvetleaf = assay: Test Example 2: soil application on the day after sowing, growth inhibition rate, velvetleaf; type: in vivo, Abutilon theophrasti MEDIC.; conditions: 250 g/ha active ingredient, observed on 19th to 24th day
Procedure, shortened: as §3

[4] = test system: redroot pigweed (Amaranthus retroflexus L.); assay: Test Example 1: foliar treatment, growth inhibition rate, redroot pigweed; type: in vivo; conditions: 31 g/ha active ingredient, visually observed 17th to 23rd day after application
Procedure, shortened: as §1

rice (Oryza sativa L.) = assay: Test Example 1: foliar treatment, growth inhibition rate, rice; type: in vivo; conditions: 31 g/ha active ingredient, visually observed 17th to 23rd day after application
Procedure, shortened: as §2

redroot pigweed = assay: Test Example 2: soil application on the day after sowing, growth inhibition rate, redroot pigweed; type: in vivo, Amaranthus retroflexus L.; conditions: 250 g/ha active ingredient, observed on 19th to 24th day
Procedure, shortened: as §3

greenfoxtail = assay: Test Example 2: soil application on the day after sowing, growth inhibition rate, greenfoxtail; type: in vivo, Setaria viridis L.; conditions: 250 g/ha active ingredient, observed on 19th to 24th day
Procedure, shortened: as §3

[5] = test system: greenfoxtail (Setaria viridis L.); assay: Test Example 1: foliar treatment, growth inhibition rate, greenfoxtail; type: in vivo; conditions: 31 g/ha active ingredient, visually observed 17th to 23rd day after application
Procedure, shortened: as §2

[6] = test system: velvetleaf (Abutilon theophrasti MEDIC.); assay: Test Example 1: foliar treatment, growth inhibition rate, velvetleaf; type: in vivo; conditions: 31 g/ha active ingredient, visually observed 17th to 23rd day after application
Procedure, shortened: as §4

[7] = test system: crabgrass (Digitaria sanguinalis L.); assay: Test Example 1: foliar treatment, growth inhibition rate, crabgrass; type: in vivo; conditions: 31 g/ha active ingredient, visually observed 17th to 23rd day after application
Procedure, shortened: as §1

Row | Structure (SMILES) | Growth inhibition rate (%) Soybean [1] | Growth inhibition rate (%) Prickly sida [3] | Growth inhibition rate (%) redroot pigweed [4] | Growth inhibition rate (%) Wheat (wheat (Triticum spp.)) | Growth inhibition rate (%) Crabgrass (crabgrass) | Growth inhibition rate (%) Corn (corn (Zea mays L.)) | Growth inhibition rate (%) Barnyardgrass [2] | Growth inhibition rate (%) Prickly sida (prickly sida) | Growth inhibition rate (%) Soybean (soybean) | Growth inhibition rate (%) Wheat (wheat) | Growth inhibition rate (%) Corn (corn) | Growth inhibition rate (%) Rice (rice) | Growth inhibition rate (%) Barnyardgrass (barnyardgrass) | Growth inhibition rate (%) Velvetleaf (velvetleaf) | Growth inhibition rate (%) Rice (rice (Oryza sativa L.)) | Growth inhibition rate (%) redroot pigweed (redroot pigweed) | Growth inhibition rate (%) Greenfoxtail (greenfoxtail) | Growth inhibition rate (%) Greenfoxtail [5] | Growth inhibition rate (%) Velvetleaf [6] | Growth inhibition rate (%) Crabgrass [7] | further results
1 | CCSC(=O)Oc1c(C(=O)c2ccc(S(C)(=O)=O)c(OC(F)F)c2C)cnn1C [Compound No. 38, 5-(ethylthio)carbonyloxy-1-methylpyrazol-4-yl 3-(difluoromethoxy)-2-methyl-4-(methylsulfonyl)phenyl ketone] | 70% | 40% | 20% | – | – | – | – | – | – | – | – | – | – | – | – | – | – | – | – | – | pest or weed control at 31 g/ha (wheat (Triticum spp.); Triticum): 0%; inhibition at 250 g/ha (crabgrass; Digitaria sanguinalis): 95%; pest or weed control at 31 g/ha (corn (Zea mays L.); Zea mays): 0%; pest or weed control at 31 g/ha ([2]; Echinochloa crus-galli): 80%; inhibition at 250 g/ha (prickly sida; Sida spinosa): 70%; inhibition at 250 g/ha (soybean; Glycine max): 0%; inhibition at 250 g/ha (wheat; Triticum aestivum): 0%; inhibition at 250 g/ha (corn; Zea mays): 0%; inhibition at 250 g/ha (rice; Oryza sativa): 60%; inhibition at 250 g/ha (barnyardgrass; Echinochloa crus-galli): 90%; inhibition at 250 g/ha (velvetleaf; Abutilon theophrasti): 20%; pest or weed control at 31 g/ha (rice (Oryza sativa L.); Oryza sativa): 40%; inhibition at 250 g/ha (redroot pigweed; Amaranthus retroflexus): 90%; inhibition at 250 g/ha (greenfoxtail; Setaria viridis): 70%; pest or weed control at 31 g/ha ([5]; Setaria viridis): 30%; pest or weed control at 31 g/ha ([6]; Abutilon theophrasti): 60%; pest or weed control at 31 g/ha ([7]; Digitaria sanguinalis): 0%
2 | CCC(C)SC(=O)Oc1c(C(=O)c2ccc(S(C)(=O)=O)c(C(=O)OC)c2C)cnn1C (centres unmarked) [compound 88] | 95% | 90% | 95% | 10% | 100% | 20% | 98% | 95% | 0% | 0% | 0% | 95% | 100% | 100% | 95% | 100% | 98% | 100% | 95% | 95% | –
3 | CCSC(=O)Oc1c(C(=O)c2ccc(S(C)(=O)=O)c(C(=O)OC)c2Cl)cnn1C [compound 27] | 90% | 70% | 95% | 10% | 95% | 40% | 100% | 100% | 0% | 10% | 0% | 90% | 100% | 95% | 80% | 100% | 98% | 100% | 80% | 80% | –
4 | C=CCSC(=O)Oc1c(C(=O)c2ccc(S(C)(=O)=O)c(C(=O)OC)c2C)cnn1CC [compound 99] | 98% | 100% | 98% | 60% | 100% | 50% | 98% | 100% | 40% | 0% | 0% | 100% | 100% | 100% | 95% | 95% | 100% | 100% | 98% | 100% | –
5 | COC(=O)c1c(S(C)(=O)=O)ccc(C(=O)c2cnn(C)c2OC(=O)SC(C)C)c1C [compound 86] | 85% | 80% | 95% | 20% | 100% | 30% | 95% | 90% | 0% | 0% | 0% | 90% | 95% | 95% | 95% | 100% | 95% | 95% | 95% | 90% | –
6 | COC(=O)c1c(S(C)(=O)=O)ccc(C(=O)c2cnn(C)c2OC(=O)SC(C)(C)C)c1C [compound 90] | 80% | 75% | 80% | 0% | 100% | 0% | 80% | 98% | 30% | 0% | 10% | 100% | 100% | 100% | 40% | 100% | 100% | 95% | 95% | 60% | –
7 | CCCSC(=O)Oc1c(C(=O)c2ccc(S(C)(=O)=O)c(C(=O)OC)c2C)cnn1C [compound 84] | 95% | 100% | 100% | 50% | 100% | 10% | 98% | 98% | 50% | 0% | 30% | 98% | 98% | 98% | 95% | 100% | 100% | 100% | 95% | 98% | –
